Source: ChEMBL document CHEMBL1138299, “Synthesis and antitumor activity of amine analogs of irofulven” (Bioorg Med Chem Lett, 2007)

Test: Antitumor activity in MV522 cells assessed as inhibition of DNA synthesis after 2 hrs
Format: functional, cell-based
Details: Homo sapiens, MV522, 2 h

Compound | IC50 [nM]
CC1=C(C=O)C2=C(C)C3(CC3)[C@@](C)(O)C(=O)C2=C1 | 4900
CC1=C(CO)C2=C(C)C3(CC3)[C@@](C)(O)C(=O)C2=C1 [IROFULVEN] | 110
